Experimental data from patent US8143241B2, “DNA damage repair inhibitors for treatment of cancer” (Kudos Pharmaceuticals Limited, priority 2003, dated 2012).

Key:
[1] = test system: MCF7-3.23 cells; test: Clonal survival, BRCA1 silenced MCF7-3.23 cells; format: cell-based, human
Source text: Log concentration of inhibitor is plotted against log surviving fraction of cells.
The MCF7 scrambled and MCF7-3.23 cell lines were generated by stable transfection of MCF7 mammary adenocarcinoma cells with gene specific pSUPER constructs. Gene specific pSUPER constructs were generated expressing the following RNAi target sequences: (i) human BRCA1 (SEQ ID NO:3) 5r-[…]-3′ (ii) scrambled control 5′-(SEQ ID NO:4) […]-3′. A 1.8 kb fragment containing the human EF1a promoter and the blasticidin resistance gene (bsd) was subcloned from pEFBsd (Invitrogen) into the SapI site of the resultant pSUPER constructs, generated pSUPER-Bsd-BRCA1 and pSUPER-Bsd-scrambled. MCF7 cells were transfected with these plasmids using FuGene6 (Roche) according to the manufacturers instructions. After selection in blasticidin, resistant clones were assessed by real time PCR for silencing of BRCA1 mRNA (Egawa et al Oncology. 2001; 61(4): 293-8; Egawa et al Int J. Cancer. 2001 Jul. 20; 95(4):255-9). Clones with reduced levels of BRCA1 mRNA were cultured (under blasticidin selection) over 8 passages and the real-time assay repeated.

[2] = test system: Brca2 deficient ES cell derived tumours; test: ES cell xenografts (teratomas) in athymic BALB/c nude mice; format: in vivo, mouse; conditions: 15 mg/kg intraperitoneal, two doses per day
Protocol: ES cell derived tumours (teratomas) were produced by subcutaneous injection of […] ES cells into 6-8 week athymic BALB/c nude (nu/nu) mice. Twenty mice were injected with Brca2 deficient ES cells and an identical cohort with isogenic wild type cells. Two days after cell injection, treatment with KU0058684 or vehicle was initiated. For three consecutive days, two Intraperitoneal doses of KU0058684 (or vehicle) were administered, six hour apart, each at a dosage of 15 mg/kg animal. This treatment was then stopped for five days and then reinitiated (as before) for another three consecutive days. Growth of tumours was monitored from a minimum volume of 0.3 cm^3. The data in FIG. 16 represents two separate experiments involving in total 40 animals.

[3] = test system: pSUPER-CFP-CONTROL transfected HeLa cells; test: Clonogenic survival, control transfected HeLa cells; format: cell-based, human; conditions: constant exposure 12-14 days, read-out: SF50 (the source's name)
Source text: (§1) Clonogenic survival curves of transfected HeLa cells under constant exposure to a range of concentrations of PARP inhibitor (KU0058684) for 12-14 days. […] SF50 for pSUPER-CFP-CONTROL transfected cells is >1×10^−5 M and is 1×10^−6 M for pSUPER-CFP-17/19/23 transfected cells.
(§2) HeLa cells were transfected using FuGene (Roche, USA) according to the manufacturers instructions. For clonogenic survival assays, cells were co-transfected in 6 well plates with pSUPER and a vector expressing blasticidin resistance (pEF-Bsd, Invitrogen, USA) at a ratio of 10:1 (pSUPER: pEF-Bsd). Twenty-four hours after transfection, cells were plated into replica plates and this was followed by treatment with PARP inhibitors and blasticidin 48 hours post transfection.

[4] = test system: RAD51 siRNA transfected HeLa cells; test: Clonogenic survival, HeLa cells with RAD51 RNAi silencing; format: cell-based, human; conditions: pSUPER-CFP-17/19/23 transfected HeLa cells, constant exposure 12-14 days; read-out: SF50 (the source's name)
Source text: as §1, §2

[5] = test system: HeLa cells; test: Cell viability, HeLa cells exposed to PARP inhibitor and caffeine; conditions: 1 mM Caffeine plus KU0058684
Source text: Error bars represent standard errors of the mean.
Caffiene was used to determine whether loss of ATM and ATR dependent DNA signalling pathways would induce sensitivity to PARP inhibition.

[6] = test system: Brca1 and Brca2 deficient cells; test: Mitotic chromosome analysis; format: cell-based, mouse; conditions: 24 hours treatment
Protocol: ES cells were seeded onto gelatin, treated for 24 hours with chemical inhibitors, followed by colcemid treatment for 1 hour. Cells were harvested, fixed, dropped onto slides, dried and stained with DAPI before chromosome analysis under a microscope.

[7] = test system: Fancd2−/−, Fanca−/−, Fancc−/− and Fanca−/−c−/− fibroblasts; test: Clonogenic survival, Fanconi anaemia mouse fibroblasts; format: cell-based; conditions: continuous exposure 12-14 days
Protocol: Mouse fibroblasts from wild-type, Fancd2^−/−, Fanca^−/−, Fancc^−/− and Fanca^−/−c^−/− animals were obtained from the Fanconi Anaemia Cell Repository, Oregon Health and Science University. These cells were maintained in DMEM, supplemented with FCS (10% v/v), glutamine and antibiotics. RAD54 and RAD52 Embryonic Stem (ES) cells were grown in DMEM, supplemented with FCS (15% v/v), glutamine, antibiotics, non-essential amino acids, 2-mercaptoethanol and Leukemia inhibitory Factor. HeLa cells (CCL-2) were obtained from ATCC (USA) and were maintained in DMEM, supplemented with FCS (10% v/v), glutamine and antibiotics.
(§3) For measurement of sensitivity to chemical inhibitors, cell cultures e.g. ES cells or mouse embryonic fibroblasts, in exponential growth were trypsinised and seeded at various densities in 6-well plates onto confluent monolayer of Mitomycin C (MMC) inactivated mouse embryonic fibroblasts and, where appropriate, treated with inhibitors after 18 h. For continuous exposure, cells were re-fed every 4 days with fresh medium and inhibitor. For timed exposures, inhibitor was added for the specified period then cells were washed and re-fed with fresh medium. After 10-14 days, cells were washed with PBS, fixed in methanol and stained with crystal violet. Colonies containing greater than approximately 50 cells were counted. Experiments were performed at least three times in triplicate.

[8] = test system: chinese hamster ovary cells deficient in Brca2 (V-C8); test: Clonogenic assay, Brca2 deficient chinese hamster ovary cells (V-C8) vs Brca2-complemented derivative; format: cell-based; conditions: Brca2 deficient CHO cells vs complemented derivative
Source text: VC8 cells and the mouse Brca2 BAC complemented derivatives were as described in M. Kraakman-van der Zwet et al., Mol Cell Biol 22, 669-79 (2002)). ES cells defective in Brca2 function have been described previously (Tutt et al. (2002) EMBO Rep 3, 255-60). The construction of ES cells defective in Brca1 will be described elsewhere but have previously been validated (Foray et al. (2003) Embo J 22 2860-71). HBL100 cells were transfected with a pSUPER BRCA1 RNAi plasmid and selected with geneticin for 3 weeks. Clones were selected on the basis of their BRCA1 expression, as analysed by Northern blot.
as §3

[9] = test system: Brca1 and Brca2 wild type and mutant ES cells; test: FACS analysis of cell cycle arrest (DNA content, phospho-histone H3); format: cell-based, mouse
Protocol: For DNA content measurement, cells were fixed in 70% ethanol, incubated with Rnase A and propidium iodide (PI) and analysed with a FACSCalibur (Becton Dickinson). For phospho-Histone H3 analysis, cells were fixed in 70% ethanol, permeabilised with 0.25% triton X-100, incubated with anti-phospho-histone H3 antibody (Upstate Biotechnology) for 3 hours, and then with FITC-anti rabbit IgG (Serotec) for 30 minutes.
Cells were exposed with KU0058684 for various periods then labelled with BrdU and the proportion of cells in each phase of the cell cycle. […] To further characterise this arrest, cells were analysed for both DNA content and for phosphorylated Histone H3, an M phase marker. […]

O=C1CCC(=O)N1c1cc(Cc2n[nH]c(=O)c3ccccc23)ccc1F [KU0058684]
sensitivity of MCF7-3.23 cells compared with MCF7-scrambled cells [1]: significantly more sensitive
sensitivity (clonal survival) ([1]; MCF7-3.23, continuous exposure 12-14 days): both cell lines were sensitive
growth of Brca2 deficient tumours relative to wild-type tumours [2]: dramatically reduce the growth
IC50 [3]: > 10000 nM
IC50 [4]: 1000 nM
sensitivity of HeLa cells to PARP inhibitor with caffeine [5]: increased sensitivity
mitotic chromosome aberrations [6]: frequent major aberrations
sensitivity of FA gene deficient fibroblasts compared to wild-type cells [7]: results in sensitivity
enhanced sensitivity compared to a Brca2-complemented derivative [8]: greater than 1000 fold
cell cycle arrest (DNA content, FACS) [9]: profound arrest of cells with a tetraploid DNA content
phase of arrest (phospho-histone H3 labelling) [9]: majority of cells were arrested in G2
